Source: US10759793B2, “2-(pyrazolopyridin-3-yl)pyrimidine derivatives as JAK inhibitors” (ALMIRALL, S.A., priority 2015, dated 2020)
pIC50: −log10 of the molar value.

What was measured:
Type in all cases: biochemical
JAK3 = JAK3 (Homo sapiens (Human), UniProt P52333); test: In vitro JAK kinase assay (TR-FRET), JAK3; conditions: catalytic domain aa 795-1124, GST-fusion; ATP 0.6 μM; peptide 140 nM; 30 minutes at room temperature
Description: (§1) Compounds were screened for their ability to inhibit JAK1, JAK2 and JAK3 using the assays as indicated below. […] The enzymatic activity was assayed using as substrate a biotinylated peptide, poly (GT)-Biotin (CisBio). […] The degree of phosphorylation was detected by TR-FRET (time-resolved fluorescence energy transfer). […] The enzymatic reactions took place for 30 minutes at room temperature. […] Incubate for 3 h and read on Victor 2V spectrofluorometer (Perkin Elmer) set to read fluorescence resonance energy transfer.

JAK2 = JAK2 (Homo sapiens (Human), UniProt O60674); test: In vitro JAK kinase assay (TR-FRET), JAK2; conditions: catalytic domain aa 826-1132, GST-fusion; ATP 0.2 μM; peptide 20 nM; 30 minutes at room temperature
Description: as §1

JAK1 = JAK1 (Homo sapiens (Human), UniProt P23458); test: In vitro JAK kinase assay (TR-FRET), JAK1; conditions: catalytic domain aa 850-1154, GST-fusion; ATP 3 μM; peptide 60 nM; 30 minutes at room temperature
Description: as §1

JAK1, sequence (P23458 850-1154): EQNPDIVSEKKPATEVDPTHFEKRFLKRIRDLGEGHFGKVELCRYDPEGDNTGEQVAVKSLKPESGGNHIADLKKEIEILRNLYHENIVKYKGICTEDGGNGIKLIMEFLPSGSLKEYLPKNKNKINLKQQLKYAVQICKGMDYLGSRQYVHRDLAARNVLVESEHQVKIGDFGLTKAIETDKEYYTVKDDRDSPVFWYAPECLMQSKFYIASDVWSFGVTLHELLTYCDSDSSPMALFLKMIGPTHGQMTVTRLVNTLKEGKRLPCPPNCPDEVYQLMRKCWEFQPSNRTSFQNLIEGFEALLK
JAK3, sequence (P52333 795-1124): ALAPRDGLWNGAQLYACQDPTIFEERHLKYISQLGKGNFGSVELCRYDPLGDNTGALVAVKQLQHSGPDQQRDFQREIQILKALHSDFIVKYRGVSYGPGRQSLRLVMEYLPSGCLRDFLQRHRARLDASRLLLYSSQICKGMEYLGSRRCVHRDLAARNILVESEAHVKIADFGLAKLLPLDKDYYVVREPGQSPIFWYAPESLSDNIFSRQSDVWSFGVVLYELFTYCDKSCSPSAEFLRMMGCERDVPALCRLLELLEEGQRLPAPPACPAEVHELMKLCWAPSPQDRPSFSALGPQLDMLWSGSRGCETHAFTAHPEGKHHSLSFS
JAK2, sequence (O60674 826-1132): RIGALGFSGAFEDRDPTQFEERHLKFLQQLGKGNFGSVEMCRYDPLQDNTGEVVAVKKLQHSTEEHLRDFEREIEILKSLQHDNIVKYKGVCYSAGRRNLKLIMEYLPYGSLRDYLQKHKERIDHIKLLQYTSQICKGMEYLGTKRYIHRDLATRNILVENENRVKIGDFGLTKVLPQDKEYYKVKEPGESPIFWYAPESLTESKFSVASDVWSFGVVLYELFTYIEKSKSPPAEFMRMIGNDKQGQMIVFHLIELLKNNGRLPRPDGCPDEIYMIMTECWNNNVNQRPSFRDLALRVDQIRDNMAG

| Molecule | pIC50 (JAK3) | pIC50 (JAK2) | pIC50 (JAK1) |
| --- | --- | --- | --- |
| COc1nc(-c2cnn3ccccc23)nc(O[C@@H]2CCCN(C(=O)CC#N)C2)c1F [Example 64, 3-{(3R)-3-[(5-Fluoro-6-methoxy-2-pyrazolo[1,5-a]pyridin-3-ylpyrimidin-4-yl)oxy]piperidin-1-yl}-3-oxopropanenitrile] | 8.40 | 8.52 | 7.55 |
| N#CCC(=O)N1CCC[C@@H](Oc2nc(-c3cnn4ccccc34)nc(N3CCOCC3)c2F)C1 [Example 53, 3-{(3R)-3-[(5-fluoro-6-morpholin-4-yl-2-pyrazolo[1,5-a]pyridin-3-ylpyrimidin-4-yl)oxy]piperidin-1-yl}-3-oxopropanenitrile] | 8.52 | 9.30 | 8.70 |
| COc1nc(-c2cnn3ccccc23)nc(N[C@@H]2CCCN(c3cnc(C#N)cn3)C2)c1F [Example 56, 5-{(3R)-3-[(5-fluoro-6-methoxy-2-pyrazolo[1,5-a]pyridin-3-ylpyrimidin-4-yl)amino]piperidin-1-yl}pyrazine-2-carbonitrile] | 8.10 | 8.15 | 7.37 |
| COc1nc(-c2cnn3ccccc23)nc(O[C@@H]2CCCN(C(=O)CO)C2)c1F [Example 63, 2-{(3R)-3-[(5-Fluoro-6-methoxy-2-pyrazolo[1,5-a]pyridin-3-ylpyrimidin-4-yl)oxy]piperidin-1-yl}-2-oxoethanol] | 8.05 | 8.52 | 6.90 |
| N#CC[C@H]1CC[C@H](Nc2nc(-c3cnn4ccccc34)nc(OCCO)c2F)CC1 [Example 5, (Trans-4-{[5-fluoro-6-(2-hydroxyethoxy)-2-pyrazolo[1,5-a]pyridin-3-ylpyrimidin-4-yl]amino}cyclohexyl)acetonitrile] | 8.70 | 9.30 | 8.05 |
| C[C@H](Nc1nc(-c2cnn3ccccc23)nc(OCCO)c1F)c1ncc(F)cn1 [Example 12, 2-[(5-Fluoro-6-{[(1S)-1-(5-fluoropyrimidin-2-yl)ethyl]amino}-2-pyrazolo[1,5-a]pyridin-3-ylpyrimidin-4-yl)oxy]ethanol] | 8.40 | 9.30 | 8.40 |
| CCCCOc1nc(-c2cnn3ccccc23)nc(N[C@@H]2CCCN(C(=O)CC#N)C2)c1F [Example 15, 3-{(3R)-3-[(6-butoxy-5-fluoro-2-pyrazolo[1,5-a]pyridin-3-ylpyrimidin-4-yl)amino]piperidin-1-yl}-3-oxopropanenitrile] | 8.70 | 9.00 | 7.89 |
| N#CCC(=O)N1CCC[C@@H](Nc2nc(-c3cnn4ccccc34)nc(-c3ccnc(CO)c3)c2F)C1 [Example 78, 3-[(3R)-3-({5-Fluoro-6-[2-(hydroxymethyl)pyridin-4-yl]-2-pyrazolo[1,5-a]pyridin-3-ylpyrimidin-4-yl}amino)piperidin-1-yl]-3-oxopropanenitrile] | 9.00 | 9.30 | 8.70 |
| Cc1c(N[C@@H]2CCCN(C(=O)CO)C2)nc(-c2cnn3ccccc23)nc1N1CCOCC1 [Example 26, 2-{(3R)-3-[(5-Methyl-6-morpholin-4-yl-2-pyrazolo[1,5-a]pyridin-3-ylpyrimidin-4-yl)amino]piperidin-1-yl}-2-oxoethanol] | 7.52 | 8.40 | 7.59 |
| N#CCC(=O)N1CCC[C@@H](Nc2nc(-c3cnn4ccccc34)nc(OCCO)c2F)C1 [Example 14, 3-((3R)-3-{[5-fluoro-6-(2-hydroxyethoxy)-2-pyrazolo[1,5-a]pyridin-3-ylpyrimidin-4-yl]amino}piperidin-1-yl)-3-oxopropanenitrile] | 9.00 | 9.30 | 9.00 |
| Cc1ncc(-c2nc(-c3cnn4ccccc34)nc(N[C@@H]3CCCN(C(=O)CO)C3)c2F)cn1 [Example 82, 2-{(3R)-3-[(5-Fluoro-2′-methyl-2-pyrazolo[1,5-a]pyridin-3-yl-4,5′-bipyrimidin-6-yl)amino]piperidin-1-yl}-2-oxoethanol] | 8.10 | 8.70 | 8.05 |
| 3-((3R)-3-{[5-Fluoro-6-(4-hydroxypiperidin-1-yl)-2-pyrazolo[1,5-a]pyridin-3-ylpyrimidin-4-yl]oxy}piperidin-1-yl)-3-oxopropanenitrile [Example 76] | 8.30 | 9.00 | 8.05 |

Continued by rising pIC50 (JAK3), values first:

| pIC50 (JAK3) | pIC50 (JAK2) | pIC50 (JAK1) | Molecule |
| --- | --- | --- | --- |
| 7.85 | 8.00 | 7.46 | O=C(CO)N1CCC[C@@H](Nc2nc(-c3cnn4ccccc34)nc(OCC(F)(F)F)c2F)C1 [Example 49, 2-((3R)-3-{[5-Fluoro-2-pyrazolo[1,5-a]pyridin-3-yl-6-(2,2,2-trifluoroethoxy)pyrimidin-4-yl]amino}piperidin-1-yl)-2-oxoethanol] |
| 8.05 | 8.52 | 7.82 | O=C(CO)N1CCC[C@@H](Nc2nc(-c3cnn4ccccc34)nc(OCC(F)F)c2F)C1 [Example 50, 2-((3R)-3-{[6-(2,2-Difluoroethoxy)-5-fluoro-2-pyrazolo[1,5-a]pyridin-3-ylpyrimidin-4-yl]amino}piperidin-1-yl)-2-oxoethanol] |
| 8.40 | 9.00 | 8.52 | O=C(CO)N1CCC[C@@H](Oc2nc(-c3cnn4ccccc34)nc(-c3ccnc(CO)c3)c2F)C1 [Example 74, 2-[(3R)-3-({5-Fluoro-6-[2-(hydroxymethyl)pyridin-4-yl]-2-pyrazolo[1,5-a]pyridin-3-ylpyrimidin-4-yl}oxy)piperidin-1-yl]-2-oxoethanol] |
| 8.40 | 9.00 | 7.92 | CC(C)OC(=O)c1nc(-c2cnn3ccccc23)nc(N[C@@H]2CCCN(C(=O)CO)C2)c1F [Example 92, Isopropyl 5-fluoro-6-{[(3R)-1-glycoloylpiperidin-3-yl]amino}-2-pyrazolo[1,5-a]pyridin-3-ylpyrimidine-4-carboxylate] |
| 8.52 | 9.15 | 7.72 | COCCOc1nc(-c2cnn3ccccc23)nc(N[C@@H]2CCCN(C(=O)CO)C2)c1C [Example 27, 2-((3R)-3-{[6-(2-Methoxyethoxy)-5-methyl-2-pyrazolo[1,5-a]pyridin-3-ylpyrimidin-4-yl]amino}piperidin-1-yl)-2-oxoethanol] |
| 8.52 | 8.70 | 7.44 | CC(C)Oc1nc(-c2cnn3ccccc23)nc(N[C@@H]2CCCN(C(=O)CO)C2)c1F [Example 51, 2-{(3R)-3-[(5-Fluoro-6-isopropoxy-2-pyrazolo[1,5-a]pyridin-3-ylpyrimidin-4-yl)amino]piperidin-1-yl}-2-oxoethanol] |
| 8.70 | 9.00 | 8.52 | CN(C)c1ccc(-c2nc(-c3cnn4ccccc34)nc(N[C@@H]3CCCN(C(=O)CO)C3)c2F)cn1 [Example 81, 2-[(3R)-3-({6-[6-(Dimethylamino)pyridin-3-yl]-5-fluoro-2-pyrazolo[1,5-a]pyridin-3-ylpyrimidin-4-yl}amino)piperidin-1-yl]-2-oxoethanol] |
| 9.00 | 9.15 | 8.40 | O=C(CO)N1CCC[C@@H](Nc2nc(-c3cnn4ccccc34)nc(O)c2F)C1 [Example 43, 5-Fluoro-6-{[(3R)-1-glycoloylpiperidin-3-yl]amino}-2-pyrazolo[1,5-a]pyridin-3-ylpyrimidin-4-ol] |
